What all share (assay): inhibition of tumour cell growth, NCI panel, 48 h
The test system of experiment [1] is SK-OV-3.
Experiment [2] has as its system SF-539.
The subject of experiment [3] is NCI-H460.
Experiment [4] concerns MOLT-4.
Experiment [5] relates to M14.
For experiment [6], the system named is SNB-19.
Experiment [7] deals with ACHN.
Experiment [8] has as its system HCC 2998.
Experiment [9] deals with U-251.
In experiment [10] the test system is A549.
Experiment [11] has as its system SR.
Experiment [12] has as its system TK-10.
For experiment [13], the system named is RXF 393.
The subject of experiment [14] is NCI-H522.
The subject of experiment [15] is OVCAR-3.

The structures appear in SMILES notation.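 Exposure lasted 48 hours, with cells grown in 96-well plates and compounds tested at five concentrations. Abbreviation: GI50, concentration required for 50% inhibition of growth.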 Active and inactive are the calls of the source. Cut-off read from the data, not from the text of the source: active = GI50 up to about 1.1 µM and inactive = higher.

As for `CC1(C)C=N[N+]2(C)C3C=CC(CC3)C12` (stereo unspecified), the GI50 in experiment [1], in experiment [2], in experiment [3], in experiment [4], in experiment [5] and in experiment [6] was > 100 µM (inactive) in each case. Moreover, the GI50 in experiment [7], in experiment [8], in experiment [9], in [10], in experiment [11] and in [12] was > 100 µM (inactive) in each case. Besides, the GI50 in experiment [13], in experiment [14] and in experiment [15] was > 100 µM (inactive) each time.

Consider `O=c1[nH]c(=O)n(C2CC(O)C(O)C(CO)O2)cc1F` (stereo unspecified), for which the GI50 in [1], in experiment [2], in experiment [3], in [4], in experiment [5] and in experiment [6] was > 100 µM (inactive) in each case. The GI50 in [7], in experiment [8], in experiment [9], in experiment [10], in [12] and in experiment [13] was > 100 µM (inactive) throughout. The GI50 in [14] and in experiment [15] was > 100 µM (inactive) each time.

Turning to `O=C(O)c1ccccc1NC(=O)C1CCCCC1`, the GI50 was > 100 µM (inactive) in [1]; > 100 µM (inactive) in [2]; 66.1 µM (inactive) in experiment [3]; > 100 µM (inactive) in experiment [4]; > 100 µM (inactive) in experiment [5]; > 100 µM (inactive) in [6]. Moreover, the GI50 in [7], in experiment [8], in experiment [9], in experiment [10], in experiment [12] and in experiment [15] was > 100 µM (inactive) each time.

As for `COc1ccc2cc(C(=O)c3ccccc3C(=O)O)ccc2c1`, the GI50 in experiment [1], in experiment [3], in experiment [4], in [5], in experiment [6] and in experiment [7] was > 100 µM (inactive) each time. The GI50 in [8], in experiment [9], in experiment [10], in [11], in [12] and in experiment [13] was > 100 µM (inactive) throughout. The GI50 in experiment [14] and in experiment [15] was > 100 µM (inactive) each time.

Take `COC(=O)/C(=N\NC(=O)C[N+](C)(C)C)C(C(=O)OC)C(=O)C(=O)Nc1ccccc1C(N)=O` (stereo unspecified): the GI50 in [1], in experiment [2], in [3], in experiment [4], in experiment [5] and in experiment [6] was > 100 µM (inactive) throughout. Moreover, the GI50 in experiment [7], in experiment [8], in [9], in experiment [10], in experiment [11] and in [12] was > 100 µM (inactive) each time. Besides, the GI50 in experiment [13], in [14] and in experiment [15] was > 100 µM (inactive) throughout.

Turning to `Cn1ccnc1CCc1ccc(Cl)c(Cl)c1`, the GI50 in experiment [1], in [2], in [3], in experiment [4], in experiment [5] and in experiment [7] was > 100 µM (inactive) each time. Besides, the GI50 in [9], in experiment [10], in [11], in experiment [12], in experiment [13] and in experiment [14] was > 100 µM (inactive) throughout. In experiment [15], the GI50 was 74.1 µM (inactive).

As for `N#CCCN(CCC#N)c1ccc(C(=O)NN)cc1`, the GI50 in [1], in experiment [2], in experiment [3], in [4], in [5] and in experiment [6] was > 100 µM (inactive) each time. For the same compound, the GI50 in experiment [7], in [8], in experiment [9], in experiment [10], in experiment [12] and in [13] was > 100 µM (inactive) in each case. The GI50 in [14] and in experiment [15] was > 100 µM (inactive) in each case.

Turning to `CCC1(N=[N+]=[N-])C(=O)c2ccccc2N(C)C1=O` (stereo unspecified), the GI50 in [1], in experiment [2], in experiment [3], in experiment [4], in [5] and in experiment [6] was > 100 µM (inactive) each time. Moreover, the GI50 in experiment [7], in experiment [8], in [9], in experiment [10], in [11] and in experiment [12] was > 100 µM (inactive) throughout. Besides, the GI50 in experiment [14] and in experiment [15] was > 100 µM (inactive) throughout.

Regarding `CN[C@@H](C)[C@H](NC)c1ccccc1`, the GI50 in [1], in [2], in experiment [4], in experiment [5], in experiment [6] and in experiment [8] was > 100 µM (inactive) throughout. Besides, the GI50 in experiment [9], in experiment [10], in experiment [12], in experiment [13], in experiment [14] and in experiment [15] was > 100 µM (inactive) throughout.

Turning to `COC(=O)C(C(=O)C(=O)Nc1c(C)cccc1C)c1cnc2ccccc2n1` (stereo unspecified), the GI50 in experiment [1], in experiment [3], in experiment [4], in experiment [5], in experiment [6] and in experiment [7] was > 100 µM (inactive) each time. In addition, the GI50 in [8], in [9], in experiment [10], in experiment [11], in experiment [12] and in [13] was > 100 µM (inactive) each time. Besides, the GI50 in experiment [14] is > 100 µM (inactive).

For `CCc1cccc(C)c1NC(=O)CC(=O)NNC(N)=S`, the GI50 in [1], in experiment [3], in [4], in experiment [5], in experiment [6] and in [7] was > 100 µM (inactive) each time. The GI50 in experiment [8], in [9], in experiment [10], in experiment [12], in experiment [13] and in [14] was > 100 µM (inactive) each time. Also, the GI50 in experiment [15] is > 100 µM (inactive).

Turning to `CN(C)c1ccc2c(=O)c3ccccc3oc2n1`, the GI50 in experiment [1] is > 100 µM (inactive); in experiment [3], > 100 µM (inactive); in [4], > 100 µM (inactive); in experiment [5], > 100 µM (inactive); in [6], > 100 µM (inactive); in experiment [7] it was 42 µM (inactive). Moreover, the GI50 in [8] was > 100 µM (inactive); in experiment [10] it was > 100 µM (inactive); in experiment [12] it was > 100 µM (inactive); in experiment [13], > 100 µM (inactive); in experiment [14], > 100 µM (inactive); in experiment [15], 91.6 µM (inactive).

For `CC12CCC3(C1)[C@H](CC2=O)C[C@@H](OC(=O)c1ccccc1)C1C(C)(CO)CCC[C@@]13C` (stereo partly specified), the GI50 in experiment [1] was 17.1 µM (inactive); in [2], 6.08 µM (inactive); in experiment [3], 1.05 µM (active); in experiment [4] it was 1.54 µM (inactive); in experiment [5] it was 3.61 µM (inactive); in experiment [6] it was 5.86 µM (inactive). The GI50 in experiment [7] was 0.342 µM (active); in [8] it was 1.97 µM (inactive); in [9], 2.38 µM (inactive); in [10], 3.46 µM (inactive); in [12], > 21.9 µM (inactive); in experiment [13], 1.71 µM (inactive). In addition, the figures for the GI50 in experiment [14] and in experiment [15] were 2.02 µM (inactive) and 0.24 µM (active), respectively.

Consider `COc1ccc(NC(=O)C(=O)Cc2nc3ccc([N+](=O)[O-])cc3nc2O)c(OC)c1`, for which the GI50 in experiment [1], in [2], in [3], in [4], in experiment [5] and in experiment [6] was > 100 µM (inactive) in each case. The GI50 in experiment [7] was > 100 µM (inactive); in [8] it was > 100 µM (inactive); in [10] it was > 100 µM (inactive); in experiment [12] it was > 100 µM (inactive); in experiment [13], > 100 µM (inactive); in [14], 83.4 µM (inactive). Moreover, the GI50 in experiment [15] is > 100 µM (inactive).

As for `CN(C)c1ccc(/C=C2\CNC/C(=C\c3ccc(N(C)C)cc3)C2=O)cc1`, the GI50 in experiment [1] was > 100 µM (inactive); in experiment [2] it was 59.2 µM (inactive); in [3], 15.5 µM (inactive); in [4] it was 24.2 µM (inactive); in experiment [5], 86.7 µM (inactive); in [7] it was 24.4 µM (inactive). Moreover, the GI50 in [8] was 29.3 µM (inactive); in [9], 14.4 µM (inactive); in [10], 27.4 µM (inactive); in [11], 8.81 µM (inactive); in [12], 33.3 µM (inactive); in experiment [13] it was 24 µM (inactive). Besides, the GI50 in [15] was 38.8 µM (inactive).

(Values after ChEMBL document CHEMBL1201862, “PubChem BioAssay data set” (2004).)
